Here are results for one molecule from patent US5705649A, “Protein staining compositions and methods” (Promega Corporation, priority 1995, dated 1998).

In assay [1] the test system is Promega Mid-Range Molecular Weight Standards. Description: In-situ staining of proteins during transfer to immobilizing supports. The procedure:
The use of immobilizing supports such as nitrocellulose, nylon, glass or polyvinyl difluoride has become very common in the immunochemical or sequence analysis of proteins. […] Two Whatman 3 mM sheets were soaked in transfer buffer and these components were then used to construct a transfer sandwich composed of one sheet of Whatman paper, the SDS-PAGE gel, the Immobilon sheet, and the final sheet of Whatman. The sandwich was placed in a Hoeffer transfer apparatus and oriented in the apparatus such that the Immobilon side of the sandwich was oriented toward the positive electrode. The apparatus was placed at 4° C. and 10 V were applied to the apparatus for 30 minutes then the voltage was increased to 30 V for an additional 120 minutes.
The Immobilon membrane was then soaked in 45% methanol, 5% acetic acid for 2 minutes.

The next assay deals with bovine serum albumin. Briefly: Analysis of partial proteolytic products (Cleveland analysis). The method, then: The comparison of proteins by analysis of the products of partial proteolysis using SDS-PAGE electrophoresis has been reported extensively in the literature. This analysis, termed Cleveland analysis, can provide important information on many different types of covalent changes that can occur on proteins.
An 8% SDS-PAGE gel was made as described in Example 5. A 5 μl sample of 1× loading buffer containing 4 μg of Bovine serum albumin previously heated at 95° C. for 5 minutes was placed in several of the wells and electrophoresis was performed as described in Example 5.
A second […] 16% SDS-PAGE gel was made as described in Example 5.
After electrophoresis, segments of the gel containing the BSA sample were excised by use of a razor blade and loaded into three of the sample wells of the second, 16 % gel. Then, 20 μl of 1× loading buffer containing 0.5 μg of Endoprotease Glu C, 0.5 μg of Endoprotease Lys C and 0.1 μg of Alkaline Protease, respectively, was added to individual wells containing the gel slices. Also, 5 μl of a solution of 4 μg of BSA in 1× loading buffer that was previously heated to 95° C. for 15 minutes was placed in a second set of three wells. To each of these three samples was added individual 20 μl solutions containing 0.5 μg of Endoprotease Glu C, 0.5 μg of Endoprotease Lys C, or 0.1 μg of Alkaline Protease, respectively. […]

Assay [2] concerns bovine serum albumin (BSA). Description: Staining in polyacrylamide gels not containing SDS. To be noted: 50 mM Tris-HCl pH 8.0. The method, then:
(§1) A polyacrylamide gel was made containing a 10% separating gel and a 3% stacking gel having 50 mM Tris-HCl pH 8.0 as a buffer. A sample loading solution was made containing Promega Green 1 dissolved in 50 mM Tris-HCl, pH 8.0, 20% glycerol. Samples of bovine serum albumin (BSA) and carbonic anhydrase were added to the sample buffer. The samples were loaded onto the gel and the gel was assembled into a BioRad miniprotean II gel system. An electrode buffer solution of 50 mM Tris pH 8.0 was used to fill the buffer chamber and a voltage of 150 volts was applied to the apparatus. […] Therefore, the stain need not be used only in systems containing SDS.

In the next assay the test system is carbonic anhydrase. Briefly: Staining in polyacrylamide gels not containing SDS. To be noted: 50 mM Tris-HCl pH 8.0. The method, then: as §1
For assay [3], the system named is Promega Mid-Range Molecular Weight Standards. Briefly: Quantitation of proteins separated by SDS-PAGE, sensitivity overall. To be noted: extracted bands. The method, then:
A 10% SDS-PAGE gel was made as described in the Example 5. Promega Mid-Range Molecular Weight Standards were diluted into loading buffer to produce solutions containing 2.0, 1.0, 0.5, and 0.25 μg of protein per band in 5 μl of solution. Duplicate 5 μl solutions of each of these solutions were loaded into 1 of the 10 sample wells in the gel after the solutions were heated at 95° C. for 10 minutes. The gel was then electrophoresed at 160 V until the running dye just eluted from the bottom of the gel. The gel was destained, and signal from stained protein enhanced, for 90 minutes in 30% methanol, 4% acetic acid.
One of the pair of duplicate bands for the 97.4, 66.2, 55.0 and 42.7 kilodalton standards from the lanes containing 2.0, 1.0, 0.5, and 0.25 μg of protein per band were excised with a razor blade as were two control gel segments from regions of the gel not containing protein. The excised segments were placed in individual 1.5 ml Eppendorf tubes containing 2% SDS and allowed to incubate at room temperature for 72 hours. After this time, the solutions were removed from the extracted segments and acetic acid was added to 2% (v/v) final concentration. The absorption of the solutions at […] was then measured.

For the molecule `CCCCCCCC(=O)N(c1ccc(OCC)cc1)c1ccc(C(=C2C=CC(=[N+](CC)Cc3cccc(S(=O)(=O)[O-])c3)C=C2)c2ccc(N(CC)Cc3cccc(S(=O)(=O)O)c3)cc2)cc1` [Promega Green 1], the “visibility of bands on membrane after enhancement” value in assay [1] (45% methanol, 5% acetic acid, 2 minutes) is given as “the protein band at all concentrations became easily visible”. Besides, in assay [1] (before enhancement), the “lowest protein per band visible on Immobilon membrane after transfer” value was 1.0 µg. Moreover, the “visibility of partial proteolytic pattern” value in the assay on bovine serum albumin (30% methanol, 4% acetic acid enhancement) is given as “readily apparent in a very short period of time”. In addition, in the assay with bovine serum albumin (Endoprotease Glu C, Endoprotease Lys C, Alkaline Protease), the “interference with Cleveland type protein analysis” value was “does not interfere with Cleveland type protein analysis”. Moreover, the “staining of BSA in gel without SDS” value in assay [2] was “seen to migrate through the gel as stained bands”. The “staining of carbonic anhydrase in gel without SDS” value with carbonic anhydrase is reported as “seen to migrate through the gel as stained bands”. Further, the “lowest amount of protein measured quantitatively” value in assay [3] turned out to be 250 ng.
